Values of other authors in patent US8017624B2, “Fused aminopiperidines as dipeptidyi peptidase-IV inhibitors for the treatment or prevention of diabetes” (Merck Sharp & Dohme Corp., priority 2005, dated 2011).

How the values were obtained:
DPP-IV = target: T1, DPP-IV (Homo sapiens, UniProt P27487)
T1 construct: GRF is rapidly degraded in plasma to GRF[3-44]

hematopoiesis = conditions: mouse, cyclophosphamide-induced neutropenia; WO 99/56753
[1] = tested on: cardiac allograft survival; conditions: rats; Transplantation 63: 1495-1500 (1997)

T1 sequence (P27487 whole entry, species assumed): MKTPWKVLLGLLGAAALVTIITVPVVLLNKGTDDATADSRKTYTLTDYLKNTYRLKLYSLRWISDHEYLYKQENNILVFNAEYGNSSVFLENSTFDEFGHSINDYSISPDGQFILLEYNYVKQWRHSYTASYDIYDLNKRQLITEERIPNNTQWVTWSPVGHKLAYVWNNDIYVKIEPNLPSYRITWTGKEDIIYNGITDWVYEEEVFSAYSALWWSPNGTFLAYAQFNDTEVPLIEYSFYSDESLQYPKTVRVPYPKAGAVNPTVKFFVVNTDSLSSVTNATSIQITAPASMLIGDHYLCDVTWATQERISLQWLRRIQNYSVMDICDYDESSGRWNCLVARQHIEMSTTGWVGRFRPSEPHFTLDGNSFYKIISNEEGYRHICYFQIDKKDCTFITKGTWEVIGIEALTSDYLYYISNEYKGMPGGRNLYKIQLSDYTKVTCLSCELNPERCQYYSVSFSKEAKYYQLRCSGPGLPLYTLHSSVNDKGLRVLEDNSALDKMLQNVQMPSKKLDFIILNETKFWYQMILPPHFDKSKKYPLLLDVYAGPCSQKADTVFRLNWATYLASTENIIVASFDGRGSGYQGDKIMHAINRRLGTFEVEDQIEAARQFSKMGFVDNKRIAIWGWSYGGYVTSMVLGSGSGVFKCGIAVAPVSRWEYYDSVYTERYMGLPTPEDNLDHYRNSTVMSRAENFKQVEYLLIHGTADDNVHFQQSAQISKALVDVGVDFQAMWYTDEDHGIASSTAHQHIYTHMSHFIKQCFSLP

Question: For `CC[C@H](C)[C@H](N)C(=O)N1CCC[C@H]1C(=O)N[C@H](C(=O)O)[C@@H](C)CC` [diprotin A], which “degradation of GRF in plasma to GRF[3-44]” value (DPP-IV) is on record?
Answer: prevented

Question: With `CC(C)[C@H](N)C(=O)N1CCC[C@H]1B(O)O` [Val-Boro-Pro] as the compound, how does the effect on hematopoiesis (hematopoiesis) read?
Answer: stimulated hematopoiesis

Question: For `CC(C)N1CCC(c2ccccc2)(c2ccccc2)CC1` [Prodipine, Pro-Pro-diphenyl-phosphonate], which cardiac allograft survival [1] is on record?
Answer: double cardiac allograft survival in rats from day 7 to day 14
